Literature values in PMC4263960 (Pediatric blood & cancer, 2013).
Like-named read-outs stand apart in the source and are kept apart here.

Columns and labels:
[1] = tested on: pediatric preclinical xenograft models; settings: cited from earlier work
[2] = tested on: neuroblastoma in children; settings: 45 children with neuroblastoma; cited from earlier work
[3] = tested on: Ewing sarcoma patients; settings: cited from earlier work
[4] = tested on: recurrent solid tumors in children; settings: cited from earlier work
[5] = tested on: pediatric solid tumors; settings: cited from earlier work

For `COc1ccc(S(=O)(=O)Nc2cccnc2Nc2ccc(O)cc2)cc1` [ABT-751], the “preclinical models with regression” value ([1]; all models) is given as 4 of 25, the “preclinical models with regression” value ([1]; neuroblastoma models refractory to vincristine and paclitaxel) is given as 2 of 4 and the objective responses [2] is given as “absence of objective responses”.
In the case of `CC[C@]1(O)C[C@H]2CN(CCc3c([nH]c4ccccc34)[C@@](C(=O)OC)(c3cc4c(cc3OC)N(C=O)[C@H]3[C@@](O)(C(=O)OC)[C@H](OC(C)=O)[C@]5(CC)C=CCN6CC[C@]43[C@@H]65)C2)C1` [vincristine], the “patients with a partial response” value [3] is listed as “one of seven”.
In the case of `CCC1=C[C@@H]2CN(C1)Cc1c([nH]c3ccccc13)[C@@](C(=O)OC)(c1cc3c(cc1OC)N(C)[C@H]1[C@@](O)(C(=O)OC)[C@H](OC(C)=O)[C@]4(CC)C=CCN5CC[C@]31[C@@H]54)C2` [vinorelbine], the “patients with objective responses” value ([4]; astrocytoma) is listed as 1 of 4, the “patients with objective responses” value ([4]; eight children with neuroblastoma) is listed as “no responses” and the “patients with objective responses” value ([4]; medulloblastoma) is listed as 1 of 2. For the same compound, the “patients with objective responses” value ([4]; nine patients with non-rhabdomyosarcoma soft tissue sarcoma) was “no responses”, the “patients with objective responses” value ([4]; rhabdomyosarcoma) was 4 of 11 and the “patients with objective responses” value ([5]; Ewing sarcomas) was “one of seven”. The “patients with objective responses” value ([5]; osteosarcomas) was “one of five” and the “patients with objective responses” value ([5]; rhabdomyosarcoma) was 6 of 12.
